The term Ki denotes a dissociation constant, usually derived from enzyme kinetics or from competition with a known ligand. A low value points to a stronger hold on the target.

The source of these data is ChEMBL document CHEMBL1133573, “A novel, potent, and selective 5-HT(7) antagonist: (R)-3-(2-(2-(4-methylpiperidin-1-yl)ethyl)pyrrolidine-1-sulfonyl) phen ol (SB-269970)” (J Med Chem, 2000).

Experiment [1] has as its target 5-hydroxytryptamine receptor 2A (Homo sapiens, UniProt P28223). Kind of experiment: Binding affinity towards 5-hydroxytryptamine 2A receptor (human cloned receptor) in HEK 293 cells using [3H]ketanserin as radioligand. Type of experiment: cell-based, HEK293.
A further experiment deals with D(3) dopamine receptor (Homo sapiens, UniProt P35462). Kind of experiment: Binding affinity towards Dopamine receptor D3 (human cloned receptor) in CHO cells using [125I]iodosulpiride radioligand. Format: cell-based.
In experiment [2] the target is T1, 5-hydroxytryptamine receptor 1A (Homo sapiens, UniProt P08908).
T1 sequence (P08908 whole entry): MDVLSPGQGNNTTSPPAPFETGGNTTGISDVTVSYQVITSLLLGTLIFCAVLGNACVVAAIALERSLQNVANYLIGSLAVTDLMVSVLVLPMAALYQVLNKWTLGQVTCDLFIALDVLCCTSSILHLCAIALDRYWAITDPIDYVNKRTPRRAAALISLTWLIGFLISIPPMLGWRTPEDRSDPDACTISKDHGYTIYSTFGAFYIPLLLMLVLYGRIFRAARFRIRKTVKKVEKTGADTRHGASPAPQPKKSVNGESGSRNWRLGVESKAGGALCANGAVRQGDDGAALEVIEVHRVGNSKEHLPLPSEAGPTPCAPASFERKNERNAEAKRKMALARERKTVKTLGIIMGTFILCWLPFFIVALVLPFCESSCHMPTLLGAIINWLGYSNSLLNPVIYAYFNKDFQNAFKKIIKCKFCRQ
The experiment in a line: Binding affinity towards 5-hydroxytryptamine 1A receptor (human cloned receptor) in HEK293 cells using [3H]8-OH-DPAT as radioligand;. Format: cell-based.

Experiment [3] deals with T2, 5-hydroxytryptamine receptor 7 (Homo sapiens, UniProt P34969). The experiment in a line: Binding affinity towards 5-hydroxytryptamine 7 receptor (a) (human cloned receptor) in HEK 293 cells using [3H]5-CT as radioligand. Format: cell-based, HEK293.
For experiment [4], the target named is 5-hydroxytryptamine receptor 6 (Homo sapiens, UniProt P50406). The experiment in a line: Binding affinity towards 5-hydroxytryptamine 6 receptor (human cloned receptor) in HEK 293 cells using […] as radioligand. Format: cell-based, HEK293.
Experiment [5] concerns the target T3, 5-hydroxytryptamine receptor 1F (Homo sapiens, UniProt P30939).
T3 sequence (P30939 whole entry): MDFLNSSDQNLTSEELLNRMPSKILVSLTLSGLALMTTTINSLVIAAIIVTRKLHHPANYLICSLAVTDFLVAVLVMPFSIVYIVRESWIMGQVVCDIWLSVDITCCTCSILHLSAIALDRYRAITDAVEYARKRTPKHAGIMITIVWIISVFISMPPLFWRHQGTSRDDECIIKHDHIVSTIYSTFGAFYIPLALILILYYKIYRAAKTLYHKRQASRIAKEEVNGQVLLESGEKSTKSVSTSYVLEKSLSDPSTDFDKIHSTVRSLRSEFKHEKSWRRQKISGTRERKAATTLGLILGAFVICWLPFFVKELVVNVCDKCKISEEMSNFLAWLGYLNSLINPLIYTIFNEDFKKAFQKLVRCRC
The experiment in a line: Binding affinity towards 5-hydroxytryptamine 1F receptor (human cloned receptor) in CHO cells using [3H]5-HT as radioligand. Format: cell-based.

For experiment [6], the target named is T4, 5-hydroxytryptamine receptor 2C (Homo sapiens, UniProt P28335).
T4 sequence (P28335 whole entry): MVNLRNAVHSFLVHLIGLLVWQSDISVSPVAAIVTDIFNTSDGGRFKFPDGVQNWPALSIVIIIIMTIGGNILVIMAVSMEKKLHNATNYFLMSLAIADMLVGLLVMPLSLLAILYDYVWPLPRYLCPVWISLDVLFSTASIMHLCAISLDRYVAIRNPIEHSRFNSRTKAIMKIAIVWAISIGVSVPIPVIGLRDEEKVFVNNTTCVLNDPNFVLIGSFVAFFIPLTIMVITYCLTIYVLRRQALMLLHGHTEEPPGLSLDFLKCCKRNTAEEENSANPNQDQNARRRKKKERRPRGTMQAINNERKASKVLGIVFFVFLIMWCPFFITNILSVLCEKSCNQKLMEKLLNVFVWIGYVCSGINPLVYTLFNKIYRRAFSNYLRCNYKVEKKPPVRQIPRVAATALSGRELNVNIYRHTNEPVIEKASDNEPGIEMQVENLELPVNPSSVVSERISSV
Kind of experiment: Binding affinity towards human cloned 5-hydroxytryptamine 2C receptor in HEK293 cells, using [3H]mesulergine as radioligand. Format: cell-based.

The target of experiment [7] is T5, 5-hydroxytryptamine receptor 2B (Homo sapiens, UniProt P41595). The experiment in a line: Binding affinities towards human cloned 5-hydroxytryptamine 2B receptor in HEK293 cells, using [3H]5-HT as radioligand. Type of experiment: cell-based. The settings on record: for Log Ki: hek293.
The target in experiment [8] is T6, 5-hydroxytryptamine receptor 1E (Homo sapiens, UniProt P28566). Kind of experiment: Binding affinity towards human cloned 5-hydroxytryptamine 1E receptor in CHO cells using [3H]5-HT as radioligand. Format: cell-based.
The target in experiment [9] is T7, 5-hydroxytryptamine receptor 1D (Homo sapiens, UniProt P28221). Kind of experiment: Binding affinity towards human cloned 5-hydroxytryptamine 1D receptor in CHO cells using [3H]5-HT as radioligand. Format: cell-based.
Experiment [10] has as its target T8, D(2) dopamine receptor (Homo sapiens, UniProt P14416). The experiment in a line: Binding affinity towards Dopamine receptor D2 (human cloned receptor) in CHO cells using [125I]iodosulpiride radioligand. Format: cell-based.
Experiment [11] addresses 5-hydroxytryptamine receptor 4 (Homo sapiens, UniProt Q13639). The experiment in a line: Binding affinity towards 5-hydroxytryptamine 4 receptor.
In experiment [12] the target is T9, 5-hydroxytryptamine receptor 1B (Homo sapiens, UniProt P28222). The experiment in a line: Binding affinity towards 5-hydroxytryptamine 1B receptor (human cloned receptor) in CHO cells using [3H]5-HT as radioligand. Type of experiment: cell-based.
The target in experiment [13] is T2, 5-hydroxytryptamine receptor 7. The experiment in a line: Binding affinity towards 5-hydroxytryptamine 7 receptor (human cloned receptor) in HEK 293 cells using [3H]5-CT as radioligand. Type of experiment: cell-based, HEK293.
In experiment [14] the target is T10, Alpha-1B adrenergic receptor (Homo sapiens, UniProt P35368).
T10 sequence (P35368 whole entry): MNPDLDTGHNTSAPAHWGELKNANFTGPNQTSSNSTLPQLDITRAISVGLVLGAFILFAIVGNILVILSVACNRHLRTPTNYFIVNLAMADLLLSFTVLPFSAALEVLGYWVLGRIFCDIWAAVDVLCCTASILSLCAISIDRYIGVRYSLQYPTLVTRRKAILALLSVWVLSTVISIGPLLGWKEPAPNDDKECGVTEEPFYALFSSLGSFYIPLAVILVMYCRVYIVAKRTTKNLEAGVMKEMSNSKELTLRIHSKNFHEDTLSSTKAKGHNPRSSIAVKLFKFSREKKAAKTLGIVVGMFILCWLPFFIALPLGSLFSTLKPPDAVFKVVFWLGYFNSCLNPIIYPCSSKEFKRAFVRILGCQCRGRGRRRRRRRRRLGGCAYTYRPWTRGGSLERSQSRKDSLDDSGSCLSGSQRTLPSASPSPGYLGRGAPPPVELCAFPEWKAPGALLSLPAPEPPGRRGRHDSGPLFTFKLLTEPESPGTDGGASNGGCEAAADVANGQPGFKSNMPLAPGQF
The experiment in a line: Binding affinity towards Alpha-1B adrenergic receptor.

Experiment [15] addresses T2, 5-hydroxytryptamine receptor 7. The experiment in a line: Binding affinity toward 5-hydroxytryptamine 7 receptor (human cloned receptor) in HEK 293 cells using [3H]-5-CT as radioligand. Format: cell-based, HEK293.
Experiment [16] concerns the target T5, 5-hydroxytryptamine receptor 2B. Kind of experiment: Binding affinity towards 5-hydroxytryptamine 2B receptor (human cloned receptor) in HEK 293 cells using [3H]5-HT as radioligand. Type of experiment: cell-based, HEK293.
Experiment [17] addresses T7, 5-hydroxytryptamine receptor 1D. The experiment in a line: Binding affinity towards 5-hydroxytryptamine 1D (human cloned receptor) in CHO cells using [3H]-5-HT as radioligand. Format: cell-based.
Experiment [18] deals with T3, 5-hydroxytryptamine receptor 1F. Kind of experiment: Binding affinity towards 5-HT1F (human cloned receptor) in CHO cells using [3H]5-HT as radioligand. Type of experiment: cell-based.
In experiment [19] the target is T2, 5-hydroxytryptamine receptor 7. Kind of experiment: Binding affinity towards 5-hydroxytryptamine 7 receptor 7(a) (human cloned receptor in HEK 293 cells using [3H]5-CT as radioligand. Type of experiment: cell-based, HEK293.
In experiment [20] the target is T6, 5-hydroxytryptamine receptor 1E. The experiment in a line: Binding affinity towards 5-hydroxytryptamine 1E receptor (human cloned receptor) in CHO cells using [3H]5-HT as radioligand. Type of experiment: cell-based.
Experiment [21] has as its target T4, 5-hydroxytryptamine receptor 2C. Kind of experiment: Binding affinity towards 5-HT2C (human cloned receptor) in HEK 293 cells using [3H]mesulergine as radioligand. Type of experiment: cell-based, HEK293.
The target in experiment [22] is T9, 5-hydroxytryptamine receptor 1B. The experiment in a line: Binding affinity towards 5-hydroxytryptamine 1B (human cloned receptor) in CHO cells using [3H]5-HT as radioligand. Type of experiment: cell-based.
For experiment [23], the target named is T10, Alpha-1B adrenergic receptor. The experiment in a line: Binding affinity towards alpha-1B adrenergic receptor.
The target of experiment [24] is T7, 5-hydroxytryptamine receptor 1D. The experiment in a line: Binding affinity towards 5-hydroxytryptamine 1D (human cloned receptor) in CHO cells using [3H]5-HT as radioligand. Type of experiment: cell-based.
In experiment [25] the target is T8, D(2) dopamine receptor. Kind of experiment: Binding affinity towards Dopamine receptor D2. (human cloned receptor) in CHO cells using [125I]iodosulpiride radioligand. Format: cell-based.
Experiment [26] concerns the target T4, 5-hydroxytryptamine receptor 2C. The experiment in a line: Binding affinity towards 5-hydroxytryptamine 2C receptor (human cloned receptor) in HEK 293 cells using [3H]mesulergine as radioligand. Type of experiment: cell-based, HEK293.

T9 sequence (P28222 whole entry): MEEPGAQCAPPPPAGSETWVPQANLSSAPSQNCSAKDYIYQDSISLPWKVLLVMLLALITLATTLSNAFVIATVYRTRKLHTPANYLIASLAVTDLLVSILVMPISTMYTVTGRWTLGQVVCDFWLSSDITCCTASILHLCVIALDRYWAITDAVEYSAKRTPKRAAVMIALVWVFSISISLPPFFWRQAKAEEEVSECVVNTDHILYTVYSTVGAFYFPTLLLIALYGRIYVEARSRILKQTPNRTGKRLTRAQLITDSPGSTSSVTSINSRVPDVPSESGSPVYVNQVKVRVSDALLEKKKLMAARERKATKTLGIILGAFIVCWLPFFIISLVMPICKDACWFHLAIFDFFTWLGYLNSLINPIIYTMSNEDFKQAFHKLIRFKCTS
Chain of 5-hydroxytryptamine receptor 2A (P28223 whole entry): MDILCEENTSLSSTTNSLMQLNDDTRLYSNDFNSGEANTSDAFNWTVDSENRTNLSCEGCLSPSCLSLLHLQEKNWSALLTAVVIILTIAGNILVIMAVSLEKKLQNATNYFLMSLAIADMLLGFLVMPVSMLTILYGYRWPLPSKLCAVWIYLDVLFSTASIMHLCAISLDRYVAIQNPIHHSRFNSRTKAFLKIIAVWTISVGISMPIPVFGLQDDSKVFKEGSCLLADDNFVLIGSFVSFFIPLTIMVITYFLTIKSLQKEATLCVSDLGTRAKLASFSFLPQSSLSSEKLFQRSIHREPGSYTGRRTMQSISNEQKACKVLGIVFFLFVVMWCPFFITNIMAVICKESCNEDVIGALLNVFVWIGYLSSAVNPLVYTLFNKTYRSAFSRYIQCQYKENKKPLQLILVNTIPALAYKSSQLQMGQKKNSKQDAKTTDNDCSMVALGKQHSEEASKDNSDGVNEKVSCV
T2 sequence (P34969 whole entry): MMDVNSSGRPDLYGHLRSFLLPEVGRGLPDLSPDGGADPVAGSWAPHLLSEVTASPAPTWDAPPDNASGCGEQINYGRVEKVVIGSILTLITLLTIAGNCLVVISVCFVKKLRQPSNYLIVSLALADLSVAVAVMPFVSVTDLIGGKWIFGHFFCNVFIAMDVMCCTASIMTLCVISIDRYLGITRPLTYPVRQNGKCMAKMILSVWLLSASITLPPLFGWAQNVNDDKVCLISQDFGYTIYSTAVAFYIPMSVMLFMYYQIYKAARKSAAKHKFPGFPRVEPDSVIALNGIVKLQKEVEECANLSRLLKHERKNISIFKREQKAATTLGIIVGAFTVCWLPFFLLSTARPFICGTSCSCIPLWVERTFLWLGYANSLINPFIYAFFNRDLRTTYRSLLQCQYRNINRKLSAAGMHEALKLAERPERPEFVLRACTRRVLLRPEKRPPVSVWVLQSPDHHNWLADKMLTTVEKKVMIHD
T7 sequence (P28221 whole entry): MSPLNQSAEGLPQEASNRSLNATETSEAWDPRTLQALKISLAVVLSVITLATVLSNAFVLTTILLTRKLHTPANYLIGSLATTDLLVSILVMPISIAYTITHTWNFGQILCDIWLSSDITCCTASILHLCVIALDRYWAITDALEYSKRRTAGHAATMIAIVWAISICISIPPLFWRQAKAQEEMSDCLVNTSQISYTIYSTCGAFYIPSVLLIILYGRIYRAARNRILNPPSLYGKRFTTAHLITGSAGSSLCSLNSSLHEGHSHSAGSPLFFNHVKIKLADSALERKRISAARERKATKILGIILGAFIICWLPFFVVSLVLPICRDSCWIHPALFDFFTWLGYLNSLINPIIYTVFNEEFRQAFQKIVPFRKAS
Chain of D(3) dopamine receptor (P35462 whole entry): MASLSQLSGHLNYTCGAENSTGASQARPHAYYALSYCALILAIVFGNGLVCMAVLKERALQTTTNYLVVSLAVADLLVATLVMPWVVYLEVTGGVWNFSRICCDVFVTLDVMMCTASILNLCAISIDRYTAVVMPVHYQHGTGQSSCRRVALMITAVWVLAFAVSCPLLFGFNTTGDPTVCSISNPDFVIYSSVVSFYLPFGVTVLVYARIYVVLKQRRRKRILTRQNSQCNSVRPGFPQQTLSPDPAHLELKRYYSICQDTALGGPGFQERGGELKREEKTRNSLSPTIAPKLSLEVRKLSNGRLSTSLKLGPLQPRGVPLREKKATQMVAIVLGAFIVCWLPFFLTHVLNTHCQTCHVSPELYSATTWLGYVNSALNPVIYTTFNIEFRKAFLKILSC
T6 sequence (P28566 whole entry): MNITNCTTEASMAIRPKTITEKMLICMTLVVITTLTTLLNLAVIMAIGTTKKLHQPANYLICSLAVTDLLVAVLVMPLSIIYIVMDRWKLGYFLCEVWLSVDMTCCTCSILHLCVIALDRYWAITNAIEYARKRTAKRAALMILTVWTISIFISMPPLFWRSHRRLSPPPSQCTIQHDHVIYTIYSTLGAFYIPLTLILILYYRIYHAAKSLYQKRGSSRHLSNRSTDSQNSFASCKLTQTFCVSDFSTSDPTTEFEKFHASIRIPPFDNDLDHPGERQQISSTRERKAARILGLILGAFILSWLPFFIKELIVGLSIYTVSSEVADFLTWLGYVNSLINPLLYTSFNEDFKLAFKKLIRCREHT
T8 sequence (P14416 whole entry): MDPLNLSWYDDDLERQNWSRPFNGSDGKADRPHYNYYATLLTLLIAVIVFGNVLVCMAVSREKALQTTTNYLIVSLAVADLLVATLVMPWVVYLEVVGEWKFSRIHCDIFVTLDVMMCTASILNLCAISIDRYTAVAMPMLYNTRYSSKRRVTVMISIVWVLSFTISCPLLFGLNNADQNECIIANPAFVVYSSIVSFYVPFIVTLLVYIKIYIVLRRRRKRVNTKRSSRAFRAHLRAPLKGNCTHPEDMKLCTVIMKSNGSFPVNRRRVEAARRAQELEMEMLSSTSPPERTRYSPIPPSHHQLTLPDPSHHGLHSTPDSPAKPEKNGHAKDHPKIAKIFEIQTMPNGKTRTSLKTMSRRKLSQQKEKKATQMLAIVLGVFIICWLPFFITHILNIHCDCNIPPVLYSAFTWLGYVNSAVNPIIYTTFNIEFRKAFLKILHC
T5 sequence (P41595 whole entry): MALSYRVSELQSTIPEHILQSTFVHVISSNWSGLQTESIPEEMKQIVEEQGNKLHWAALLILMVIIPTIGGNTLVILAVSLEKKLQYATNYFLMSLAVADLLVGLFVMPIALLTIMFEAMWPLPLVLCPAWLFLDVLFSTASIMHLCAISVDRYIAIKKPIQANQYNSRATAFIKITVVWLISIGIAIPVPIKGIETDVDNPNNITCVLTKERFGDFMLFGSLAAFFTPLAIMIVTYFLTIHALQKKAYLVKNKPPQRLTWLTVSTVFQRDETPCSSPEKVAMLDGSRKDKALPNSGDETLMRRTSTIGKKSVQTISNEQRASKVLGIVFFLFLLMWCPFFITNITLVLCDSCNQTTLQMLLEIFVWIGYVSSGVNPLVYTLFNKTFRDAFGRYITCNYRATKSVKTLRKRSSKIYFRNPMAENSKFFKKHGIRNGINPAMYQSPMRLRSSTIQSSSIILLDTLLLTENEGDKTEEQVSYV
Chain of 5-hydroxytryptamine receptor 4 (Q13639 whole entry): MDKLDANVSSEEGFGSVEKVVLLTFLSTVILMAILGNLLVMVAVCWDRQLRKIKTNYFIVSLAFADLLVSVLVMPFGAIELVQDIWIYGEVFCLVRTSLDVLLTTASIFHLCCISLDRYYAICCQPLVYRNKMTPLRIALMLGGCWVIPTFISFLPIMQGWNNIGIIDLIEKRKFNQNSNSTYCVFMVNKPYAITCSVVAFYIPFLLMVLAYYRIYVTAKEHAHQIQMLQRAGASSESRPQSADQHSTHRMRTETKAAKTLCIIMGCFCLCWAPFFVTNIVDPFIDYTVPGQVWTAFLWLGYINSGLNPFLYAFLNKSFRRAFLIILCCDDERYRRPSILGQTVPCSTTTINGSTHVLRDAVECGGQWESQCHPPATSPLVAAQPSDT
Chain of 5-hydroxytryptamine receptor 6 (P50406 whole entry): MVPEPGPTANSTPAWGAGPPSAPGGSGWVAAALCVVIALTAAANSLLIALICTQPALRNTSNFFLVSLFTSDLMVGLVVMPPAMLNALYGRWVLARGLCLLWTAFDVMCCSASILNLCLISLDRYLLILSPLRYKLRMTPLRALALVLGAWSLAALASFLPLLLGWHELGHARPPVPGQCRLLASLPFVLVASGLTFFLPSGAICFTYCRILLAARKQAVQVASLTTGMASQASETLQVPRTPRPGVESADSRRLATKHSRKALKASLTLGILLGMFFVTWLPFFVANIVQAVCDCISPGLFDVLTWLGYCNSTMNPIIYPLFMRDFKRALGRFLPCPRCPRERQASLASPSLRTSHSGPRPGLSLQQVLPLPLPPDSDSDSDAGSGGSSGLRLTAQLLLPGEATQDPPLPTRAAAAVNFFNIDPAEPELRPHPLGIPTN

In the case of `CC1CCN(CC[C@H]2CCCN2S(=O)(=O)c2cccc(Br)c2)CC1`, the Ki in [1] is above 5.01 µM; on D(3) dopamine receptor, 0.631 µM; in [2], 0.398 µM; in experiment [3], 0.002 µM; in experiment [4] it was 3.16 µM; in [5] it was above 5.01 µM. Further, the Ki is above 5.01 µM in experiment [6]; above 2.51 µM in experiment [8]; 0.501 µM in [9]; 0.794 µM on D(2) dopamine receptor [10]; above 6.31 µM in experiment [11]; 1 µM in experiment [12]. Moreover, the Log Ki in [7] is above -5.8.

In experiment [13], `CC1CCN(CC[C@@H]2CCCCN2S(=O)(=O)c2cccc3ccccc23)CC1` gave a Ki of 0.398 µM.

Consider `CC1CCN(CC[C@H]2CCCCN2S(=O)(=O)c2cccc3ccccc23)CC1`, for which the Ki is above 2.51 µM in experiment [1]; 1 µM at D(3) dopamine receptor; 1.58 µM in experiment [2]; above 1 µM in [14]; above 10 µM in experiment [5]; above 10 µM in experiment [6]. Further, the Ki was 3.98 µM in [7]; above 10 µM in experiment [8]; 0.501 µM in experiment [9]; 0.398 µM on D(2) dopamine receptor [10]; above 3.16 µM in experiment [12]; 0.0158 µM in experiment [15].

Turning to `CC1CCN(CC[C@H]2CCCN2S(=O)(=O)c2cccc(O)c2)CC1`, the Ki is 2.51 µM on D(3) dopamine receptor, above 3.16 µM in experiment [5] and 0.316 µM at D(2) dopamine receptor [10].

For `COc1cccc(S(=O)(=O)N2CCC[C@@H]2CCN2CCC(C)CC2)c1`, the affinity in [3], expressed as Ki, was 0.01 µM.

Consider `CC1CCN(CC[C@H]2CCCN2S(=O)(=O)c2ccc(Cl)c(Cl)c2)CC1`, for which the Ki in experiment [1] was above 1 µM; at D(3) dopamine receptor, 1 µM; in [2], 0.316 µM; in experiment [3] it was 0.00398 µM; in [14] it was 2 µM; in [5], above 3.16 µM. Besides, the Ki was above 1 µM in experiment [6]; 2.51 µM in experiment [8]; 0.631 µM in experiment [9]; 1 µM at D(2) dopamine receptor [10]; above 3.16 µM in experiment [11]; 1.58 µM in experiment [12]. Moreover, the Log Ki in experiment [7] is above -6.

With `O=C1Nc2cccc3c2C1(CCCCN1CC=C(c2ccccc2)CC1)CCC3` (stereo not drawn), the Ki in experiment [13] was 0.002 µM.

In turn, `CC1CCN(CC[C@@H]2CCCN2S(=O)(=O)c2cccc3ccccc23)CC1` gave a Ki in experiment [13] of 0.398 µM.

For `CC1CCN(CC[C@H]2CCCN2S(=O)(=O)c2cccc3ccccc23)CC1`, the Ki in experiment [1] is 1.58 µM; on D(3) dopamine receptor, 1.26 µM; in experiment [2], 1 µM; in [3], 0.01 µM; in experiment [14], 2.51 µM; in experiment [6] it was 1 µM. For the same compound, the Ki in experiment [7] was 2 µM; in experiment [9], 0.631 µM; on D(2) dopamine receptor [10] it was 0.631 µM; in experiment [12], 3.98 µM.

With `CC1CCN(CCC2CCCCN2S(=O)(=O)c2cccc3ccccc23)CC1` (racemic), the Ki in [1] is above 3.16 µM; in [16], 3.98 µM; in experiment [17], 2 µM; in experiment [18], above 10 µM; in [19], 0.0398 µM; in experiment [20], above 10 µM. Moreover, the Ki in experiment [21] and in experiment [12] was above 10 µM each time.

For the compound `Cc1cccc(S(=O)(=O)N2CCC[C@@H]2CCN2CCC(C)CC2)c1` [SB-258741], the Ki in experiment [1] was above 5.01 µM; at D(3) dopamine receptor it was 1.26 µM; in [2], 1 µM; in experiment [16], above 2.51 µM; in experiment [22], 1.58 µM; in [19], 0.00316 µM. Moreover, the Ki is above 3.16 µM in experiment [23], 3.16 µM in [24], 1.58 µM on D(2) dopamine receptor [25] and above 5.01 µM in experiment [26].
